{"source": "paper PMC12123601", "about": "“Light-Induced, Lysine-Targeting Irreversible Covalent Inhibition of the Human Oxygen Sensing Hydroxylase Factor Inhibiting HIF (FIH)” (Journal of the American Chemical Society, 2025)", "biological_target": "FIH (Homo sapiens, UniProt Q9NWT6)", "sequence (Q9NWT6 whole entry)": "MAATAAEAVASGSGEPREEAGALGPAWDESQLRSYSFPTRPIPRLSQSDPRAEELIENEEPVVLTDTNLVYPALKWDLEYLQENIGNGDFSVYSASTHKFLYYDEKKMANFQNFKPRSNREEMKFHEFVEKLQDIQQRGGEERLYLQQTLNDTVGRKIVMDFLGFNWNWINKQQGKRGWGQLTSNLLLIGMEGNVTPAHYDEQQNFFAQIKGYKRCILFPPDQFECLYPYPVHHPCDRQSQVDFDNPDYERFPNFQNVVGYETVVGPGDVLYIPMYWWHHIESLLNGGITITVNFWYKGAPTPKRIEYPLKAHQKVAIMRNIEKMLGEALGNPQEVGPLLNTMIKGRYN", "test": "O-phenylenediamine (OPD) 2OG derivatization turnover assay (remaining 2OG in FIH hydroxylation system)", "format": "biochemical", "set-up": "Concentration of remaining 2OG: unit: µM", "protocol": "To explore whether the covalent inhibitor can effectively and sustainably prevent the hydroxylation process catalyzed by FIH, the inhibitory activities against FIH were evaluated using the fluorescent O-phenylenediamine (OPD) 2OG derivatization turnover assay (Figure S9).\nFigure S9. Schematic of the O-phenylenediamine (OPD) fluorescent derivative assay6. The assay monitors depletion of 2OG.\n(1 picture or pasted object on this page, not shown here) […]\npET28a vectors encoding for full-length FIH with an N-terminal His6 tag or for FIH (K106A) with an N-terminal His6 tag were purchased from Nanjing Zoonbio Biotechnology. Both the FIHWT and FIHK106A protein were expressed from the respective plasmid in Escherichia coli BL21 at 20 °C for 16 h. E. coli cells were lysed and the lysate were clarified by centrifugation. His6-tagged FIHWT or FIHK106A was purified on a HisTrap affinity column (GE Healthcare) by elution with an imidazole gradient. The final purified proteins were stored in PBS buffer. […]\nKi = I50 / [1 + ([L]50 + [P]0)/Kd] […]\n3.2 O-Phenylenediamine (OPD) fluorescent derivative assay\nAssays were carried out by mixing 1 mM DTT, 0.6 mg/mL of catalase, 200 μM 2-OG, 50 mM Hepes, 200 μM HIF-1α (788-807), and inhibitors at pH 7.0 to a final volume of 44 μL and incubated at 37 °C for 5 min. At the same time, FIH enzyme and iron (prepared as 200 mM stock in 20 mM HCl and diluted with water) were mixed at room temperature for 3 min. […] The reaction was stopped by the addition of 100 μL of 0.5 M HCl. After adding 50 μL of 10 mg/mL OPD in 0.5 M HCl and heating at 95 °C for 10 min, the derivatization was achieved. Then, 50 μL of the mixture centrifugated for 5 min was made basic by adding 30 μL of 1.25 M NaOH, and then fluorescence was detected by SPARK Multi-Mode Microplate Reader (Tecan). […]\nCrystals were cryo -protected using mother liquor supplemented with 25%v/v glycerol before manual loop cryo -cooling in liquid N2.\nData for ligand -bound protein complexes were from single crystals at 100 K using Diamond Light Source (UK) beamlines. The FIH crystal structures were determined by molecular replacement (MR) using the AutoMR (PHASER) subroutine in PHENIX (version 1.18.2) based on the PDB ID: 1H2K crystal structure ."}
{"compound": "O=C(O)CNC(=O)c1ncc(-c2cc(-c3ccc(CO)c([N+](=O)[O-])c3)no2)cc1O", "note": "[NBA-ZG-2291]", "values": [{"measurement": "Inhibition of FIH hydroxylation activity on the HIF peptide (2OG consumption)", "setting": "compared to ZG-2291", "result": "more potent and sustained inhibition of FIH hydroxylation activity"}, {"measurement": "Concentration of remaining 2OG", "setting": "inhibitor 0.14 μM, incubation 0 min, 200 μM 2-OG at start", "result": 200.0}, {"measurement": "Concentration of remaining 2OG", "setting": "inhibitor 0.14 μM, incubation 15 min", "result": 187.5}, {"measurement": "Concentration of remaining 2OG", "setting": "inhibitor 0.14 μM, incubation 30 min", "result": 184.6}, {"measurement": "Concentration of remaining 2OG", "setting": "inhibitor 0.14 μM, incubation 1 h", "result": 174.8}, {"measurement": "Concentration of remaining 2OG", "setting": "inhibitor 0.14 μM, incubation 4 h", "result": 163.1}, {"measurement": "Concentration of remaining 2OG", "setting": "inhibitor 0.41 μM, incubation 0 min, 200 μM 2-OG at start", "result": 200.0}, {"measurement": "Concentration of remaining 2OG", "setting": "inhibitor 0.41 μM, incubation 15 min", "result": 189.1}, {"measurement": "Concentration of remaining 2OG", "setting": "inhibitor 0.41 μM, incubation 30 min", "result": 188.8}, {"measurement": "Concentration of remaining 2OG", "setting": "inhibitor 0.41 μM, incubation 1 h", "result": 184.6}, {"measurement": "Concentration of remaining 2OG", "setting": "inhibitor 0.41 μM, incubation 4 h", "result": 171.6}, {"measurement": "Concentration of remaining 2OG", "setting": "inhibitor 1.23 μM, incubation 0 min, 200 μM 2-OG at start", "result": 200.0}, {"measurement": "Concentration of remaining 2OG", "setting": "inhibitor 1.23 μM, incubation 15 min", "result": 191.6}, {"measurement": "Concentration of remaining 2OG", "setting": "inhibitor 1.23 μM, incubation 30 min", "result": 190.6}, {"measurement": "Concentration of remaining 2OG", "setting": "inhibitor 1.23 μM, incubation 1 h", "result": 187.9}, {"measurement": "Concentration of remaining 2OG", "setting": "inhibitor 1.23 μM, incubation 4 h", "result": 182.8}, {"measurement": "Concentration of remaining 2OG", "setting": "inhibitor 3.70 μM, incubation 0 min, 200 μM 2-OG at start", "result": 200.0}, {"measurement": "Concentration of remaining 2OG", "setting": "inhibitor 3.70 μM, incubation 15 min", "result": 194.0}, {"measurement": "Concentration of remaining 2OG", "setting": "inhibitor 3.70 μM, incubation 30 min", "result": 193.5}, {"measurement": "Concentration of remaining 2OG", "setting": "inhibitor 3.70 μM, incubation 1 h", "result": 189.6}, {"measurement": "Concentration of remaining 2OG", "setting": "inhibitor 3.70 μM, incubation 4 h", "result": 185.3}, {"measurement": "Concentration of remaining 2OG", "setting": "inhibitor 11.1 μM, incubation 0 min, 200 μM 2-OG at start", "result": 200.0}, {"measurement": "Concentration of remaining 2OG", "setting": "inhibitor 11.1 μM, incubation 15 min", "result": 199.7}, {"measurement": "Concentration of remaining 2OG", "setting": "inhibitor 11.1 μM, incubation 30 min", "result": 198.7}, {"measurement": "Concentration of remaining 2OG", "setting": "inhibitor 11.1 μM, incubation 1 h", "result": 197.8}, {"measurement": "Concentration of remaining 2OG", "setting": "inhibitor 11.1 μM, incubation 4 h", "result": 197.2}, {"measurement": "Concentration of remaining 2OG", "setting": "inhibitor 33.3 μM, incubation 0 min, 200 μM 2-OG at start", "result": 200.0}, {"measurement": "Concentration of remaining 2OG", "setting": "inhibitor 33.3 μM, incubation 15 min", "result": 200.8}, {"measurement": "Concentration of remaining 2OG", "setting": "inhibitor 33.3 μM, incubation 30 min", "result": 198.7}, {"measurement": "Concentration of remaining 2OG", "setting": "inhibitor 33.3 μM, incubation 1 h", "result": 197.6}, {"measurement": "Concentration of remaining 2OG", "setting": "inhibitor 33.3 μM, incubation 4 h", "result": 197.3}, {"measurement": "Concentration of remaining 2OG", "setting": "inhibitor 100 μM, incubation 0 min, 200 μM 2-OG at start", "result": 200.0}, {"measurement": "Concentration of remaining 2OG", "setting": "inhibitor 100 μM, incubation 15 min", "result": 200.1}, {"measurement": "Concentration of remaining 2OG", "setting": "inhibitor 100 μM, incubation 30 min", "result": 199.2}, {"measurement": "Concentration of remaining 2OG", "setting": "inhibitor 100 μM, incubation 1 h", "result": 198.5}, {"measurement": "Concentration of remaining 2OG", "setting": "inhibitor 100 μM, incubation 4 h", "result": 198.3}, {"measurement": "Concentration of remaining 2OG", "setting": "inhibitor 300 μM, incubation 0 min, 200 μM 2-OG at start", "result": 200.0}, {"measurement": "Concentration of remaining 2OG", "setting": "inhibitor 300 μM, incubation 15 min", "result": 201.4}, {"measurement": "Concentration of remaining 2OG", "setting": "inhibitor 300 μM, incubation 30 min", "result": 199.5}, {"measurement": "Concentration of remaining 2OG", "setting": "inhibitor 300 μM, incubation 1 h", "result": 199.2}, {"measurement": "Concentration of remaining 2OG", "setting": "inhibitor 300 μM, incubation 4 h", "result": 198.6}]}
